This passage reports Activity and GI50 results from ChEMBL document CHEMBL3108671, “Differential Induction of Cytoplasmic Vacuolization and Methuosis by Novel 2-Indolyl-Substituted Pyridinylpropenones” (2014).

The subject of assay [1] is U-251. Briefly: Induction of methuosis in human U251 cells assessed as decrease in cell proliferation at 10 uM after 2 days by phase-contrast microscopic analysis. It counts as functional, cell-based.
Assay [2] concerns U-251. Briefly: Induction of methuosis in human U251 cells assessed as detachment of vacuolated cells at 10 uM after 2 days by phase-contrast microscopic analysis. It counts as functional, cell-based.
Assay [3] deals with U-251. In words: Induction of methuosis in human U251 cells assessed as heavily vacuolated cells at 10 uM after 1 day by phase-contrast microscopic analysis. It counts as functional, cell-based.
Assay [4] has as its system U-251. In words: Growth inhibition of human U251 cells preincubated for 24 hrs followed by compound-washout measured at 48 hrs by sulforhodamine assay. It counts as functional.
Assay [5] relates to U-251. In words: Induction of methuosis in human U251 cells assessed as loss of membrane integrity at 10 uM after 2 days by phase-contrast microscopic analysis. It counts as functional, cell-based.
The test system of assay [6] is U-251. Briefly: Induction of methuosis in human U251 cells assessed as sparse cells at 10 uM after 1 day by phase-contrast microscopic analysis. It counts as functional, cell-based.

Structures are written as SMILES. Activity calls are given as the source filed them. No cut-off for these calls is given here.

As to `CCCc1[nH]c2ccc(OC)cc2c1/C=C/C(=O)c1ccncc1`, the outcome with U-251 [1] and with U-251 [2] was inactive. In the assay on U-251 [3], the outcome was Active. Growth in the assay on U-251 [4] was halved (GI50) at 15.3 µM.
On to `COc1ccc2[nH]c(C(C)C)c(/C=C/C(=O)c3ccncc3)c2c1`, for which the result with U-251 [1] and in the assay with U-251 [2] was inactive. Moreover, the outcome in the assay with U-251 [3] was Active. The GI50 with U-251 [4] is more than 20 µM.
Take `COc1ccc2[nH]c(CC(C)C)c(/C=C/C(=O)c3ccncc3)c2c1`: the outcome with U-251 [1] and with U-251 [2] was inactive. Also, the outcome with U-251 [3] was Active. In addition, the GI50 in the assay with U-251 [4] is 16.6 µM.
For `COc1ccc2[nH]cc(/C=C/C(=O)c3ccncc3)c2c1`, the outcome with U-251 [1] and in the assay with U-251 [2] was inactive. Also, the result with U-251 [3] was Active. The same compound registered a GI50 with U-251 [4] of 18.6 µM.
Turning to `COc1ccc2[nH]c(C)c(/C=C/C(=O)c3cccnc3)c2c1`, the result in the assay with U-251 [1] and in the assay on U-251 [3] was inactive. Also, the GI50 in the assay with U-251 [4] stood at 16.9 µM.
On to `CCc1[nH]c2ccc(OC)cc2c1/C=C/C(=O)c1ccncc1`, for which the result in the assay on U-251 [5], in the assay with U-251 [2], in the assay with U-251 [3] and in the assay on U-251 [6] was Active. This compound yielded a GI50 in the assay on U-251 [4] of 3.2 µM.
